Literature values as cited in patent publication US20240000780A1, “PED5 INHIBITOR SEMI-SOLID COMPOSITIONS AND METHODS OF MAKING AND USING THEREOF” (Seattle Gummy Company, priority 2021, published 2024).

Details: ranking among alpha, beta, gamma cyclodextrins

Row | SMILES | stability of complex formed with tadalafil
1 | OC[C@H]1O[C@@H]2O[C@H]3[C@H](O)[C@@H](O)[C@@H](O[C@H]4[C@H](O)[C@@H](O)[C@@H](O[C@H]5[C@H](O)[C@@H](O)[C@@H](O[C@H]6[C@H](O)[C@@H](O)[C@@H](O[C@H]7[C@H](O)[C@@H](O)[C@@H](O[C@H]1[C@H](O)[C@H]2O)O[C@@H]7CO)O[C@@H]6CO)O[C@@H]5CO)O[C@@H]4CO)O[C@@H]3CO [alpha, alpha-cyclodextrin] | least stable
2 | OC[C@H]1O[C@@H]2O[C@H]3[C@H](O)[C@@H](O)[C@@H](O[C@H]4[C@H](O)[C@@H](O)[C@@H](O[C@H]5[C@H](O)[C@@H](O)[C@@H](O[C@H]6[C@H](O)[C@@H](O)[C@@H](O[C@H]7[C@H](O)[C@@H](O)[C@@H](O[C@H]8[C@H](O)[C@@H](O)[C@@H](O[C@H]9[C@H](O)[C@@H](O)[C@@H](O[C@H]1[C@H](O)[C@H]2O)O[C@@H]9CO)O[C@@H]8CO)O[C@@H]7CO)O[C@@H]6CO)O[C@@H]5CO)O[C@@H]4CO)O[C@@H]3CO [gamma, gamma-cyclodextrin] | most stable complex
